Experimental data taken from patent US8163929B2, “Dihydropyridone amides as P2X7 modulators” (Roche Palo Alto LLC, priority 2008, dated 2012).

Target: T1, P2X7 (UniProt Q99572)
T1 sequence (Q99572 1-595): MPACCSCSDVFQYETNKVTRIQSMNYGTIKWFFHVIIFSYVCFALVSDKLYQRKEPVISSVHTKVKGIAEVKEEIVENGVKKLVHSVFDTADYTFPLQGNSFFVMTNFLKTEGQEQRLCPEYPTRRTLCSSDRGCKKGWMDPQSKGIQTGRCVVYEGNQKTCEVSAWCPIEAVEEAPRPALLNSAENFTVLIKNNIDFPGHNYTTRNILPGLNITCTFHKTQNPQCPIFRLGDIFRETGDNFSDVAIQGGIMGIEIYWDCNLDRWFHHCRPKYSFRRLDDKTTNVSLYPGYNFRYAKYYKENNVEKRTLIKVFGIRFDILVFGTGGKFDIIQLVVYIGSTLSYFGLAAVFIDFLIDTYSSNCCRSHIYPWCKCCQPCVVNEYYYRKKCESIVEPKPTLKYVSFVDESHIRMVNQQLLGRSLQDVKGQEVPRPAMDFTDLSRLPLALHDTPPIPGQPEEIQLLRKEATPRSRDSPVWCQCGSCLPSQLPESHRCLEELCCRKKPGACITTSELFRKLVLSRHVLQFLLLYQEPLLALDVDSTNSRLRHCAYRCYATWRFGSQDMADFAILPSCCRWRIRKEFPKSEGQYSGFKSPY
Assay: P2X7 activity of Table 1
Format: cell-based
Settings: pIC50 values for P2X7
Protocol: Stock solutions of compounds were prepared from powders as a 10 mM DMSO stock solution. These solutions were stored at RT during the two week period of these experiments to prevent freeze-thaw of the DMSO stocks. The DMSO stocks were added to the appropriate assay buffer at a concentration of 10 μM, and then diluted serially to the final concentrations that were tested. […] The aqueous solutions of compounds as well as ATP (Sigma A7699) and BzATP (Sigma B6396) were prepared fresh for each day of experiment.
1321N1 cells stably expressing the full length human P2X7 gene (1321N1-hP2X7) and HEK293 cells stably expressing the full length rat P2X7 gene (HEK293-rP2X7) were obtained from the Roche Cell Culture Facility. 1321N1-hP2X7 cells were grown in Dulbecco's Modified Eagle's Medium (DMEM) high glucose supplemented with 10% FBS and 250 μg/mL G418. HEK293-rP2X7 cells were grown in DMEM/F-12 supplemented with 10% FBS, 1 mM CaCl2, 2 mM MgCl2, 2 mM L-Glutamine and 500 μg/ml G418. Cells were split such that they never became >70% confluent.
On the day prior to the experiment, 1321N1-hP2X7 or HEK293-rP2X7 cells were released into suspension with calcium-free PBS+Versene and washed by centrifugation with calcium-free PBS to remove the Versene. Cells were resuspended in growth medium at a density of 2.5×10^5 cells/mL and seeded into black walled, clear bottom 96 well plates (50,000 cells/well) approximately 18 hr prior to intracellular calcium flux experiments.
On the day of the experiment, plates were washed with FLIPR buffer (calcium- and magnesium-free Hank's Balanced Salt Solution (HBSS) supplemented with 10 mM Hepes, 2.5 mM probenecid and 2 mM calcium chloride) using a BIO-TEK 96 channel plate washer and incubated with […] fluo-3 dye at 37° C. for one hr. The dye was then removed by plate washing and the cells were allowed to equilibrate for 20 min at room temperature with antagonist or vehicle (FLIPR buffer). Agonist (100 μM BzATP final concentration for hP2X7; 5 μM BzATP final concentration or rP2X7) was added online with the FLIPR and fluorescence measurements made at 1 sec intervals for 60 sec followed by 3 sec intervals for a further 4 min (5 min total). A final addition of 5 μM ionomycin was made and the maximal BzATP-evoked fluorescence normalized to the maximal ionomycin-evoked fluorescence.

| SMILES | pIC50 |
| --- | --- |
| Cc1ccc(-c2ccn(CCO)n2)cc1NC(=O)C1=CNC(=O)C[C@H]1c1cccc(Cl)c1 (stereo in doubt) [Compound 114, 4-(3-Chloro-phenyl)-6-oxo-1,4,5,6-tetrahydro-pyridine-3-carboxylic acid {5-[1-(2-hydroxy-ethyl)-1H-pyrazol-3-yl]-2-methyl-phenyl}-amide] | 7.56 |
| Cc1ccc(-c2cc(C)n(CCO)n2)cc1NC(=O)C1=CNC(=O)C[C@H]1c1ccc(F)cc1 [Compound 2, (S)-4-(4-Fluoro-phenyl)-6-oxo-1,4,5,6-tetrahydro-pyridine-3-carboxylic acid {5-[1-(2-hydroxy-ethyl)-5-methyl-1H-pyrazol-3-yl]-2-methyl-phenyl}-amide] | 7.735 |
| Cc1ccc(-c2nnn(C)n2)cc1NC(=O)C1=CNC(=O)C[C@H]1c1ccc(F)cc1 [Compound 3, (S)-4-(4-Fluoro-phenyl)-6-oxo-1,4,5,6-tetrahydro-pyridine-3-carboxylic acid [2-methyl-5-(2-methyl-2H-tetrazol-5-yl)-phenyl]-amide] | 6.21 |
| Cc1ccc(-c2nnnn2C)cc1NC(=O)C1=CNC(=O)C[C@H]1c1ccc(F)cc1 [Compound 9, (S)-4-(4-Fluoro-phenyl)-6-oxo-1,4,5,6-tetrahydro-pyridine-3-carboxylic acid [2-methyl-5-(1-methyl-1H-tetrazol-5-yl)-phenyl]-amide] | 6.1767 |
| Cc1ccc(-c2ccc(C)c(NC(=O)C3=CNC(=O)C[C@H]3c3ccc(F)cc3)c2)cn1 [Compound 10, (S)-4-(4-Fluoro-phenyl)-6-oxo-1,4,5,6-tetrahydro-pyridine-3-carboxylic acid [2-methyl-5-(6-methyl-pyridin-3-yl)-phenyl]-amide] | 6.653 |
| Cc1ccc(-n2cccn2)cc1NC(=O)C1=CNC(=O)C[C@H]1c1ccc(F)cc1 [Compound 11, (S)-4-(4-Fluoro-phenyl)-6-oxo-1,4,5,6-tetrahydro-pyridine-3-carboxylic acid (2-methyl-5-pyrazol-1-yl-phenyl)-amide] | 7.763 |
| Cc1cc(-c2ccc(C)c(NC(=O)C3=CNC(=O)C[C@H]3c3ccc(F)cc3)c2)n(CCO)n1 [Compound 12, (S)-4-(4-Fluoro-phenyl)-6-oxo-1,4,5,6-tetrahydro-pyridine-3-carboyxlic acid {5-[2-(2-hydroxy-ethyl)-5-methyl-2H-pyrazol-3-yl]-2-methyl-phenyl}-amide] | 6.913 |
| CCc1cc(-c2cccc(NC(=O)C3=CNC(=O)C[C@H]3c3ccc(F)cc3)c2)n[nH]1 [Compound 17, (S)-4-(4-Fluoro-phenyl)-6-oxo-1,4,5,6-tetrahydro-pyridine-3-carboxylic acid [3-(5-ethyl-1H-pyrazol-3-yl)-phenyl]-amide] | 6.073 |
| Cc1ccc(-c2cc(C)n(C[C@@H](O)CO)n2)cc1NC(=O)C1=CNC(=O)C[C@H]1c1ccc(F)cc1 [Compound 19, (S)-4-(4-Fluoro-phenyl)-6-oxo-1,4,5,6-tetrahydro-pyridine-3-carboxylic acid {5-[1-((R)-2,3-dihydroxy-propyl)-5-methyl-1H-pyrazol-3-yl]-2-methyl-phenyl}-amide] | 7.423 |
| Cc1cc(-c2cccc(NC(=O)C3=CNC(=O)C[C@H]3c3ccc(F)cc3)c2)n(C)n1 [Compound 20, (S)-4-(4-Fluoro-phenyl)-6-oxo-1,4,5,6-tetrahydro-pyridine-3-carboxylic acid [3-(2,5-dimethyl-2H-pyrazol-3-yl)-phenyl]-amide] | 5.31 |

Next, values leading:

| pIC50 | SMILES |
| --- | --- |
| 6.985 | Cc1ccc(-n2cccc2)cc1NC(=O)C1=CNC(=O)CC1c1cccc(F)c1 (stereo not drawn) [Compound 1, 4-(3-Fluoro-phenyl)-6-oxo-1,4,5,6-tetrahydro-pyridine-3-carboxylic acid (2-methyl-5-pyrrol-1-yl-phenyl)-amide] |
| 7.715 | Cc1ccc(-c2cc(C)n(C)n2)cc1NC(=O)C1=CNC(=O)C[C@H]1c1ccc(F)cc1 [Compound 4, (S)-4-(4-Fluoro-phenyl)-6-oxo-1,4,5,6-tetrahydro-pyridine-3-carboxylic acid [5-(1,5-dimethyl-1H-pyrazol-3-yl)-2-methyl-phenyl]-amide] |
| 7.745 | Cc1ccc(-c2cc[nH]n2)cc1NC(=O)C1=CNC(=O)C[C@H]1c1ccc(F)cc1 [Compound 5, (S)-4-(4-Fluoro-phenyl)-6-oxo-1,4,5,6-tetrahydro-pyridine-3-carboxylic acid [2-methyl-5-(1H-pyrazol-3-yl)-phenyl]-amide] |
| 7.07 | Cc1ccc(-c2ccc(C)c(NC(=O)C3=CNC(=O)C[C@H]3c3ccc(F)cc3)c2)nc1 [Compound 6, (S)-4-(4-Fluoro-phenyl)-6-oxo-1,4,5,6-tetrahydro-pyridine-3-carboxylic acid [2-methyl-5-(5-methyl-pyridin-2-yl)-phenyl]-amide] |
| 7.643 | Cc1ccc(-c2cc(C)n(CC(C)O)n2)cc1NC(=O)C1=CNC(=O)C[C@H]1c1ccc(F)cc1 (stereo partly drawn) [Compound 7, (S)-4-(4-Fluoro-phenyl)-6-oxo-1,4,5,6-tetrahydro-pyridine-3-carboxylic acid {5-[1-(2-hydroxy-propyl)-5-methyl-1H-pyrazol-3-yl]-2-methyl-phenyl}-amide] |
| 6.367 | Cc1ccc(-c2ccnn2CC(C)C)cc1NC(=O)C1=CNC(=O)C[C@H]1c1ccc(F)cc1 [Compound 8, (S)-4-(4-Fluoro-phenyl)-6-oxo-1,4,5,6-tetrahydro-pyridine-3-carboxylic acid [5-(2-isobutyl-2H-pyrazol-3-yl)-2-methyl-phenyl]-amide] |
| 7.033 | Cc1ccc(-c2ccnn2C)cc1NC(=O)C1=CNC(=O)C[C@H]1c1ccc(F)cc1 [Compound 13, (S)-4-(4-Fluoro-phenyl)-6-oxo-1,4,5,6-tetrahydro-pyridine-3-carboxylic acid [2-methyl-5-(2-methyl-2H-pyrazol-3-yl)-phenyl]-amide] |
| 6.913 | CCc1cc(-c2ccc(C)c(NC(=O)C3=CNC(=O)C[C@H]3c3ccc(F)cc3)c2)[nH]n1 [Compound 14, (S)-4-(4-Fluoro-phenyl)-6-oxo-1,4,5,6-tetrahydro-pyridine-3-carboxylic acid [5-(5-ethyl-2H-pyrazol-3-yl)-2-methyl-phenyl]-amide] |
| 7.79 | Cc1ccc(-c2[nH]nc(C)c2C)cc1NC(=O)C1=CNC(=O)C[C@H]1c1ccc(F)cc1 [Compound 15, (S)-4-(4-Fluoro-phenyl)-6-oxo-1,4,5,6-tetrahydro-pyridine-3-carboxylic acid [5-(4,5-dimethyl-2H-pyrazol-3-yl)-2-methyl-phenyl]-amide] |
| 7.23 | Cc1ccc(-n2ncc(=O)[nH]c2=O)cc1NC(=O)C1=CNC(=O)C[C@H]1c1ccc(F)cc1 [Compound 16, (S)-4-(4-Fluoro-phenyl)-6-oxo-1,4,5,6-tetrahydro-pyridine-3-carboxylic acid [5-(3,5-dioxo-4,5-dihydro-3H-[1,2,4]triazin-2-yl)-2-methyl-phenyl]-amide] |
| 5.72 | Cc1cc(-c2cccc(NC(=O)C3=CNC(=O)C[C@H]3c3ccc(F)cc3)c2)nn1C [Compound 18, (S)-4-(4-Fluoro-phenyl)-6-oxo-1,4,5,6-tetrahydro-pyridine-3-carboxylic acid [3-(1,5-dimethyl-1H-pyrazol-3-yl)-phenyl]-amide] |
